Tests used:
[1] = Chemical stability of DB4: potency after pre-incubation in cell-free medium (EdU readout); format: physicochemical; details: pre-incubated in cell-free medium at 37° C. up to 72 hr; PEO4 cells
Method: DB4 remained mostly active and intact after 72 hr in the culture medium. The dose response curve of DB4 in DNA synthesis inhibition in PEO4 cells was generated as determined by EdU flow cytometric analysis. […] PEO4 cells were treated with these media for 24 hr. The level of DNA synthesis inhibition was determined to interpolate and calculate % DB4 remaining compared with the control at 0 hr. FIG. 5B depicts representative results for remaining DB4 after DB4 (MW=496.1) was added to the culture medium at 50 μM for 0 hr, 24 hr, 48 hr, or 72 hr at 37° C. FIG. 5C depicts representative mass spectrum obtained from mass spectrometry that was run to detect the level of the 496.13 ion at 0 hr. FIG. 5D depicts representative mass spectrum obtained from mass spectrometry that was run to detect the level of the 496.13 ion at 72 hr.
To ensure that DB4 remained chemically stable, the time course study was performed by determining the potency of DB4 following a pre-incubation in the cell-free medium at 37° C. for up to 72 hr. Cells were treated for 24 hr with the medium containing pre-incubated DB4 and DNA synthesis was determined by the EdU incorporation assay.

[2] = system: MDA-MB231 breast cancer cells; test: Clonogenic assay, MDA-MB231; format: cell-based; details: DB4 at 3 μM, 14 days
Method: Cells were plated for 24 hr, pre-treated with DB4 for 1 hr, and then treated with various concentrations of olaparib for 14 days. Colonies were stained and determined for clonogenic survival.
To further substantiate the effectiveness of DB4 and mitigate the issue of off-target effects with a higher concentration range of drugs used in the MTS cytotoxicity assay, clonogenic assays were carried out to determine the long-term survival of cells in response to treatments.
The assay was conducted as described previously (Lin Z P et al., 2014, Molecular Cancer Res, 12:381-393). Cells were plated at various densities in 6-well plates in triplicate. After 24 hr of incubation, cells were treated continuously with various concentrations of olaparib, DB4, or both drugs in combination. After 12-14 days, colonies were fixed/stained with crystal violet solution and counted to determine the percentage of survival using a GelDoc imaging system with QuantityOne software (Bio-Rad, Hercules, CA).

[3] = system: PD-L1; test: PD-L1 level in BRCA-wild type PEO4 cells; format: cell-based
Description: FIG. 21A depicts representative effects of DB4 and/or olaparib on BRCA-wild type PEO4 cells after 24, 48, and 72 hr. FIG. 21B depicts representative effects of DB4 and/or olaparib on the level of DSBs in BRCA-wild type PEO4 cells. FIG. 21C depicts representative effects of DB4 and/or olaparib on the level of PD-L1 protein in BRCA-wild type PEO4 cells.
FIG. 22 depicts representative effects of DB4 and/or olaparib on PD-L1-positive populations of BRCA-mutated PEO1 and BRCA-wild type PEO4 cells. DB4 and/or olaparib increased the PD-L1-positive population of BRCA-wild type PEO4 cells in the presence of IFNγ.

[4] = system: PEO4 cells; test: MTS cytotoxicity assay, sensitization to olaparib, PEO4; format: cell-based; details: 30 μM, olaparib 72 hr
Method: Cells were pre-treated with 30 μM DB4 for 1 hr and then treated with various concentrations of olaparib for 72 hr. Cell survival was determined by MTS cytotoxicity assay. Data are means±SD (N=3-4). […] EOB calculation was used to quantify the synergy of the combination of DB4 and various concentrations of olaparib in PEO1 or PEO4 cells as shown in FIG. 8A. EOB>0, synergism; EOB=0, additivity; EOB<0, antagonism. […] Cells were pre-treated with 30 μM DB4-F for 1 hr and then treated with various concentrations of olaparib for 72 hr. Cell survival was determined by MTS cytotoxicity assay. Data are means±SD (N=3-4). […] EOB calculation was used to quantify the synergy of the combination of DB4-F and various concentrations of olaparib in PEO1 or PEO4 cells as shown in FIG. 8B. EOB>0, synergism; EOB=0, additivity; EOB<0, antagonism. […] Cell survival was determined by MTS cytotoxicity assay. […] Caspase 3/7 activity was expressed as RLU per μg/μl protein. […] Caspase 3/7 activity was expressed as RLU per μg/μl protein. […] Cells were treated and caspase 3/7 activity was measured as described in FIG. 8G and FIG. 8H.
It was also examined whether DB4 sensitized BRCA-wild type EOC cells to a PARP inhibitor. BRCA2-mutated PEO1 and BRCA2-wild type PEO4 cells were treated with DB4 at 30 μM in combination with various concentrations of olaparib and cell survival was determined. […]

Q: What does the source list for `C=CCn1c(SCc2cccc(Cl)c2)nnc1C1CCN(Cc2nc3ccccc3s2)CC1` [DB4, 2-[(4-{4-allyl-5-[(3-chlorobenzyl)thio]-4H-1,2,4-triazol-3-yl}-1-piperidinyl)methyl]-1,3-benzothiazole]?
A: activity to inhibit DNA synthesis after pre-incubation [1]: more than 82%; clonogenic survival in the presence of olaparib [2]: effectively reduced the clonogenic survival; PD-L1 protein level ([3]; BRCA-wild type EOC cells): up-regulation of PD-L1 protein; PD-L1-positive population ([3]; PEO4 cells in the presence of IFNγ): significantly increased; sensitization to olaparib (cell survival) [4]: effectively sensitized

From patent US20240239786A1, “COMPOSITIONS AND METHODS FOR THE TREATMENT AND PREVENTION OF CANCER” (Yale University, priority 2021, published 2024)
